Here are results for one compound from PubChem BioAssay (NCI).

Test systems include LOX IMVI melanoma; CAKI-1 renal; HOP-92 NSCLC; ACHN renal; DU-145 prostate; RXF 393 renal; K-562 leukemia; UO-31 renal; MDA-MB-231 breast; SNB-75 CNS.
What all share (experiment): inhibition of tumour cell growth, NCI panel, 48 h

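Cultured in 96-well plates, cells were exposed to test compound for 48 hours across five concentrations. At the GI50, growth is halved. TGI: concentration producing complete growth inhibition.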 Bounds are passed on as bounds.

Consider `Cc1ccc(/C=N\NC(=O)c2[nH]c3ccc(F)cc3c2-c2ccccc2)cc1`, for which the GI50 with LOX IMVI melanoma is 33.9 nM; with CAKI-1 renal, 34.4 nM; in the experiment on HOP-92 NSCLC, 36.3 nM; in the experiment with ACHN renal it was 53.8 nM; with DU-145 prostate, 25.1 nM; in the experiment on RXF 393 renal it was 30.5 nM. The GI50 in the experiment on K-562 leukemia is 38 nM; with UO-31 renal, 47.2 nM; with MDA-MB-231 breast it was 28.3 nM; in the experiment on SNB-75 CNS, 38.2 nM. In addition, the TGI in the experiment with LOX IMVI melanoma is more than 100000 nM; in the experiment on CAKI-1 renal it was 12500 nM; with HOP-92 NSCLC, 50300 nM; with ACHN renal, more than 100000 nM; with DU-145 prostate, 62.2 nM; with RXF 393 renal, 1490 nM. Moreover, the TGI in the experiment on K-562 leukemia was 15500 nM; in the experiment with UO-31 renal, more than 46000 nM; in the experiment on MDA-MB-231 breast it was 129 nM; in the experiment with SNB-75 CNS, 16600 nM.
